Consider two compounds from patent publication US20100075907A1, “NEUROMEDIN U RECEPTOR AGONISTS AND USES THEREOF” (priority 2006, published 2010).

As a reminder, the EC50 is the midpoint of the concentration-response curve. Low values mean higher potency in that assay, high ones lower potency in that assay.

The structures appear in SMILES notation. Non-standard residues stand in square brackets, D forms with d. Residues, ends and D or L forms follow the SMILES beside them. hArg = N=C(N)NCCCC[C@H](N)C(=O)O; dNle = CCCC[C@@H](N)C(=O)O

The test concerns the target T1, hNMUR1 (Homo sapiens, UniProt Q9HB89).
T1 sequence (Q9HB89 1-426): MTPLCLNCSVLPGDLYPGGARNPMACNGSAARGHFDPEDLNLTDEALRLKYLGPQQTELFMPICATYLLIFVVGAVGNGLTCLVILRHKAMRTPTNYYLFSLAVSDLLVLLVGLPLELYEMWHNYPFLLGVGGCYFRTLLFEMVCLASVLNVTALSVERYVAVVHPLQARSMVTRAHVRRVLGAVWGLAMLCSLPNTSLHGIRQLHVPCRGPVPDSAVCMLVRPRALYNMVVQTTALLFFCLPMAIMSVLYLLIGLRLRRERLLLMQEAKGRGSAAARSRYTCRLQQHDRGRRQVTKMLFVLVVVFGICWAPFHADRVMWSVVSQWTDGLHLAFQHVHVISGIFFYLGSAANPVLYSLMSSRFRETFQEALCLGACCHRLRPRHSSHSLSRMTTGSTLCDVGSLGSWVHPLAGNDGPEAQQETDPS
Briefly: In vitro functional assay, HEK-hR1 cells. The format is cell-based. More on the design: expressed in transfected cells; host or cells: FLP-In CHO or HEK-293 FLP-In cells (pcDNA5); HEK-293/aeq17 lines (pIRES-puro) were also made. To be noted: Table 9, HEK-hR1, functional. An excerpt: Human, mouse or rat cDNAs encoding NMUR1 or NMUR2 (as described in Howard et al. Nature 406: 70-74 (2000) were subcloned in pcDNA5 (Invitrogen) and transfected into FLP-In CHO cells and HEK-293 FLP-In cells purchased from Invitrogen (Carlsbad, Calif.) using lipofectamine (Invitrogen). The Flp-In system allows integration and expression of a particular gene of interest at a specific genomic location utilizing the Flp recombinase from yeast. The transfected cells were selected by growth in medium containing 200 μg/mL hygromycin (Invitrogen). Populations were frozen at early passage numbers, and these stocks were used for further studies. Stable clones that expressed the mRNAs were identified functionally by FLIPR as well as by RT-PCR. […] Two different rodent NMUR1 cell lines were thus generated: one with the codon as predicted from the genomic databases and another cell line with an engineered methionine (ATG) as the start codon. Additionally, stable cell lines expressing the human receptors were generated in HEK-293/aeq17 cells which stably express the aequorin gene under the CMV promoter. The human NMUR2 cDNA was cloned into pcDNA3.1 and human NMUR1 was subcloned into pIRES-puro (Clontech, Mountain View, Calif.), after transfection cells were selected in media containing G418 and either hygromycin (NMUR2) or puromycin (NMUR1).
The NMU receptors signal primarily through Gαq/11 proteins; therefore calcium mobilization assays can be utilized for functional activity.
Stable cell lines expressing human and or rodent NMUR1 or human NMUR2 receptors were plated at a density of 12,000 cells per well overnight on poly-lysine coated 384-well black-walled plates. The following day, the media was removed from the plates and the cells were subsequently loaded with Fluo-3 (Molecular Probes), a calcium sensitive dye, diluted in FLIPR buffer (1× Hank's buffered saline containing 20 mM HEPES, 0.1% BSA, 2.5 mM probenecid (Sigma) and 1.6 mM TR40). All reagents are from Invitrogen unless otherwise noted. Peptide stocks were resuspended in DMSO at a stock concentration of 2 mM and diluted in FLIPR buffer on the day of the experiment to a 4 μM working stock solution.
After a 90 minute incubation at room-temperature, cell plates were loaded onto a FLIPR (Molecular Devices) to monitor cellular fluorescence (excitation=488 nm; emission=540 nm) before and after compound/peptide addition. Eight to twelve point dose responses were tested on NMUR-expressing cell lines using FLIPR with 1 μM peptide as the highest dose. The response after peptide addition was taken as the maximum fluorescence units minus the fluorescence immediately prior to stimulation for each well. EC50 values were calculated using GraphPad Prism (San Diego, Calif.) software.
In addition to FLIPR, NMU receptor function can also be evaluated using an aequorin assay. Stable cell lines expressing the aequorin jelly fish gene can be used to report the activation of GPCRs by monitoring intracellular calcium mobilization. The objective is to identify compounds which specifically stimulate aequorin bioluminescence. Calcium-dependent luminescence is generated by the treatment of cells with the coelenterate luciferin, coelenterazine. Briefly, confluent monolayers of HEK-293/aeq 17 cells expressing hNMUR1 or hNMUR2 are “charged” with coelenterazine (Molecular Probes, Carlsbad, Calif.). Confluent T75 flasks are rinsed with media containing 300 μM glutathione and 0.1% FBS. Cells are incubated at 37° C. for one hour in 8 mL media, 0.1% FBS, 300 μM glutathione, and 20 μM coelenterazine. T75 flasks are subsequently rinsed with 6 mL ECB buffer (140 mM NaCl, 20 mM KCl, 20 mM HEPES, 5 mM glucose, 1 mM MgCl, 1 mM CaCl2, 0.1 mg/mL BSA, PH 7.3-7.4). Cells are removed from the flask in ECB buffer, pelleted, and resuspended at a density of 2×10^5 cells/mL. Agonists are added to the cells and activity is determined using a luminometer. […]

Turning to `CC(C)C[C@H](NC(=O)[C@H](Cc1c[nH]c2ccccc12)NC(=O)[C@H](Cc1ccccc1)NC(=O)CNC(=O)[C@H](CCCNC(=N)N)NC(=O)[C@H](CO)NC(=O)[C@H](CCC(N)=O)NC(=O)[C@H](CO)NC(=O)[C@H](C)NC(=O)[C@H](Cc1ccccc1)NC(=O)[C@@H]1CCCN1C(=O)[C@H](CO)NC(=O)[C@H](CCC(N)=O)NC(=O)[C@H](Cc1ccccc1)NC(=O)[C@H](CCC(=O)O)NC(=O)[C@H](CCC(=O)O)NC(=O)[C@H](CC(=O)O)NC(=O)[C@@H](NC(=O)[C@H](CCCNC(=N)N)NC(=O)[C@@H](N)Cc1ccccc1)C(C)C)C(=O)N[C@@H](Cc1ccccc1)C(=O)N[C@@H](CCCNC(=N)N)C(=O)N1CCC[C@H]1C(=O)N[C@@H](CCCCNC(=N)N)C(=O)N[C@@H](CC(N)=O)C(N)=O` [Agonist O] (H-FRVDEEFQSPFASQSRGFWLFRP[hArg]N-NH2; N-terminus assumed), the “% Activity” value is 35% and the 50% effective concentration (EC50) turned out to be 420 nM.
Regarding `CCCC[C@@H](NC(=O)[C@H](CCCNC(=N)N)NC(=O)[C@H](C)NC(=O)[C@H](CCCNC(=N)N)NC(=O)[C@H](Cc1ccccc1)NC(=O)[C@H](CC(C)C)NC(=O)[C@H](Cc1ccccc1)NC(=O)[C@@H](N)Cc1c[nH]c2ccccc12)C(N)=O` [Agonist K, WFLFRAR-(D-Nle)-CONH2] (H-WFLFRAR[dNle]-NH2), the “% Activity” value stood at 61% and the response was half-maximal at 400 nM (EC50).
